Test results reported in ChEMBL document CHEMBL1134014, “Synthesis and biological evaluation of a sialyl Lewis X mimic with significantly improved E-selectin inhibition” (Bioorg Med Chem Lett, 2001).

Tests used:
[1] = target: T1, E-selectin (Homo sapiens) (UniProt P16581); settings: 200uM
T1 sequence (whole entry): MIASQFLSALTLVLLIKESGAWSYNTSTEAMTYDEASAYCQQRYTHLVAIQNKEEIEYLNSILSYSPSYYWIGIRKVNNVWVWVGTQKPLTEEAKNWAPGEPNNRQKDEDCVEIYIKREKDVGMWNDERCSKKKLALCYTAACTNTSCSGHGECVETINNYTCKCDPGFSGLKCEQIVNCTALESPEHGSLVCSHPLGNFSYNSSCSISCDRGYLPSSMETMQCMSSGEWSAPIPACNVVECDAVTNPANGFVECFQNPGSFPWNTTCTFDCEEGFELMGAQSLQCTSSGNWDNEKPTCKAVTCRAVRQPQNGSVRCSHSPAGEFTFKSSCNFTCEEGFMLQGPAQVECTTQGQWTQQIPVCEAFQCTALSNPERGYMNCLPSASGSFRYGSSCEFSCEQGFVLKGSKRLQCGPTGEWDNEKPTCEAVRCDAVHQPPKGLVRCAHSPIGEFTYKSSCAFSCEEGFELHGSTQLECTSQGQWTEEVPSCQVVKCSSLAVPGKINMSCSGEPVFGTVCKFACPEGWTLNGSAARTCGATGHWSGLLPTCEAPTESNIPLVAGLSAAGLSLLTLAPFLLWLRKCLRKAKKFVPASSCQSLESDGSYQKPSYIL
Description: Percent inhibition of Selectin E by the compound at a dose of 200uM

[2] = target: T1, E-selectin (Homo sapiens); experiment: Relative inhibitory concentration against Selectin E to that of sLex in a static cell free ligand binding assay
[3] = target: T2, E-selectin (Homo sapiens, UniProt P16581); experiment: Inhibitory concentration against Selectin E in a static cell free ligand binding assay under equilibrium conditions.
T2 sequence (P16581 whole entry): T1 sequence (whole entry)

[4] = target: T1, E-selectin (Homo sapiens); settings: 50uM
Description: Percent inhibition of Selectin E by the compound at a dose of 50uM

[5] = target: T1, E-selectin (Homo sapiens); settings: 10uM
Description: Percent inhibition of Selectin E by the compound at a dose of 10uM

Compound	inhibition [1]	Relative IC50 [2]	IC50 [3]	inhibition [4]	inhibition [5]
COC(=O)CCCCCCCCO[C@@H]1O[C@@H](CO)[C@@H](O[C@@H]2O[C@@H](CO)[C@H](O)[C@H](O[C@@H](CC3CCCCC3)C(=O)O)[C@@H]2O)[C@H](O[C@@H]2O[C@@H](C)[C@@H](O)[C@H](O)[C@@H]2O)[C@@H]1NC(=O)c1ccc(OC)c(OC)c1	97%	0.03	1500 µM	93%	54%
C[C@@H]1O[C@@H](O[C@@H]2CCCC[C@H]2O[C@@H]2O[C@@H](CO)[C@H](O)[C@H](OC(CC3CCCCC3)C(=O)O)[C@@H]2O)[C@@H](O)[C@@H](O)[C@@H]1O (single isomer, unassigned)		0.115			
COC(=O)CCCCCCCCO[C@@H]1O[C@@H](CO)[C@@H](O[C@@H]2O[C@@H](CO)[C@H](O)[C@H](O[C@]3(C(=O)O)C[C@@H](O)[C@@H](NC(C)=O)[C@H]([C@@H](O)[C@H](O)CO)O3)[C@@H]2O)[C@H](O[C@@H]2O[C@@H](C)[C@@H](O)[C@H](O)[C@@H]2O)[C@@H]1NC(C)=O		1			
C[C@@H]1O[C@@H](O[C@@H]2[C@H](CO)OCC[C@H]2O[C@@H]2O[C@@H](CO)[C@H](O)[C@H](OC(CC3CCCCC3)C(=O)O)[C@@H]2O)[C@@H](O)[C@@H](O)[C@@H]1O (single isomer, unassigned)		0.031			
COC(=O)CCCCCCCCOC1O[C@@H](O)[C@@H](O[C@@H]2O[C@@H](CO)[C@H](O)[C@H](O[C@]3(C(=O)O)C[C@@H](O)[C@@H](NC(C)=O)[C@H]([C@@H](O)[C@H](O)CO)O3)[C@@H]2O)[C@H](O[C@@H]2O[C@@H](C)[C@@H](O)[C@H](O)[C@@H]2O)[C@@H]1NC(=O)c1ccc(OC)c(OC)c1 (some centres undefined)		0.164			
